Data as given in patent publication US20190017026A1, “METHOD AND DEVICE FOR CONSERVING VIABLE AND FUNCTIONAL HUMAN POLYMORPHONUCLEAR NEUTROPHILS” (INSTITUT PASTEUR, priority 2014, published 2019).
Entries after “also recorded” stand apart in the source; their conditions may differ. Counter-ions that a name gives are not always drawn.

How the values were obtained:
human neutrophils = assay: Neutrophil survival rate by flow cytometry (Annexin V-/PI-) upon storage; type: cell-based; settings: for neutrophil survival rate (Annexin V-/PI-): 3 mM glucose, 32 μg/mL DMOG
Procedure: Neutrophils fractions with a >95% purity obtained by applying Method 1 or Method 2 were resuspended at a 5×10^6 cells/mL concentration in RPMI 1640 with L Glutamine and 25 mM Hepes (Gibco, Life Technologies), 10% of heat inactivated Foetal Bovine Serum (FBS) (Invitrogen, Gibco) and indicated concentrations of glucose (Sigma-Aldrich) and Dimethyloxalylglycine or DMOG (Cayman Chemical Company). For comparative experiments aiming at characterizing the role of oxygen on neutrophils survival, purified neutrophils (Method 1 or Method 2) were split in two identical fractions. One was stored at 37° C. with 5% CO2 under atmospheric conditions (20% O2 condition, +O2). The second one was stored at 37° C. in an anoxic chamber ([…], Don […]) under an atmosphere containing 90% N2, 5% CO2 and 5% H2 (0% O2 condition, -O2), during indicated time. Cell viability. For neutrophil survival analysis, human neutrophils (1×10^6) were washed twice in PBS and then resuspended in 1 ml of Annexin V binding Buffer. A 100 μl sample (1×10^5 cells) was stained with 5 μl of APC-Annexin V and 5 μl of Propidium iodide (PI) (0.5 μg/ml final concentration) as recommended by the manufacturer. At least 10^4 events were acquired for each condition on a FACSCaliburTM flow cytometer (BD Biosciences), and data were analyzed using CellQuestTM Pro Software (BD Biosciences). Viable cells were defined as Annexin V-/PI- quantifications. In this study, neutrophil survival rate was evaluated in various conditions by flow cytometry, by quantifying the proportion of viable (propidium iodide negative staining, PI-) and non-apoptotic (Annexin V negative staining, Annexin V-) cells.

neutrophils = settings: normoxic conditions; cited from earlier work

SMILES: COC(=O)CNC(=O)C(=O)OC [DMOG, Dimethyloxalylglycine]
- neutrophil survival rate (Annexin V-/PI-) (human neutrophils; citrate (Method 2), anoxia, 20 h): 70±8%
- neutrophil survival rate (Annexin V-/PI-) (human neutrophils; citrate (Method 2), anoxia, 48 h): 49±2%
- neutrophil survival rate (Annexin V-/PI-) (human neutrophils; heparin (Method 1), absence of oxygen, 20 h storage): 54+10%
- neutrophil survival rate (Annexin V-/PI-) (human neutrophils; heparin (Method 1), absence of oxygen, 48 h storage): 14+10%
- effect on neutrophil apoptosis (neutrophils): decreases apoptosis

SMILES: O=C(O)CN(CCN(CC(=O)O)CC(=O)O)CC(=O)O [EDTA]
- neutrophils survival as compared to citrate at blood collection (human neutrophils; blood collected with EDTA instead of citrate): even better results

SMILES: O=C(O)CC(O)(CC(=O)O)C(=O)O [citrate, sodium citrate]
- neutrophils survival rate as compared to heparin as anticoagulant (human neutrophils; blood collected with citrate, presence or absence of oxygen, 20 h and 48 h post purification): significant increase of neutrophils survival rate; also recorded: improved
